Data published in patent publication US9994581B2, “Bromodomain inhibitors” (AbbVie Inc., priority 2013, dated 2018).

Key:
[1] = biological target: BRD4 (BDI-BDII_K57-K550) (Homo sapiens, UniProt O60885); experiment: TR-FRET bromodomain binding assay; settings: His-tagged tandem bromodomain, Alexa647-labeled probe; Ki calculated from IC50s, probe Kd and probe concentration
Procedure: A time-resolved fluorescence resonance energy transfer (TR-FRET) assay was used to determine the affinities of compounds of the Examples listed in Table 1 for the tandem domain of bromodomain BRD4. […] An Alexa647-labeled BET-inhibitor was used as the fluorescent probe in the assay.
TR-FRET data were normalized to the means of 24 no-compound controls (“high”) and 8 controls containing 1 μM un-labeled probe (“low”). Percent inhibition was plotted as a function of compound concentration and the data were fit with the 4 parameter logistic equation to obtain IC50s. Inhibition constants (Ki) were calculated from the IC50s, probe Kd and probe concentration. Typical Z′ values were between 0.65 and 0.75.

[2] = test system: breast cancer cell line MX-1; experiment: MX-1 cell line proliferation assay (3-day, Cell Titer Glo); type: cell-based; settings: Homo sapiens, MX1, MX-1 cells, 72 hours, read-out: Cellular proliferation: EC50
Procedure: The impact of compounds of the Examples on cancer cell proliferation was determined using the breast cancer cell line MX-1 (ATCC) in a 3-day proliferation assay and the data are reported in Table 1. […] For compound testing, MX-1 cells were plated in 96-well black bottom plates at a density of 5000 cells/well in 90 μL of culture media and incubated at 37° overnight to allow cell adhesion and spreading. Compound dilution series were prepared in DMSO via a 3-fold serial dilution from 3 mM to 0.1 μM. The DMSO dilution series were then diluted 1:100 in phosphate buffered saline, and 10 μL of the resulted solution were added to the appropriate wells of the MX-1 cell plate. The final compound concentrations in the wells were 3, 1, 0.3, 0.1, 0.03, 0.01, 0.003, 0.001, 0.0003, and 0.0001 μM, or 1, 0.3, 0.1, 0.03, 0.01, 0.003, 0.001, 0.0003, 0.0001, and 0.00003 μM.
Luminescence readings from the Cell Titer Glo assay were normalized to the DMSO treated cells and analyzed using the GraphPad Prism software with sigmoidal curve fitting to obtain EC50s.

SMILES | Ki [1] [nM] | EC50 [2] [nM]
CCS(=O)(=O)Nc1ccc2c(c1)-c1cn(C)c(=O)cc1OCCN(CCC(F)(F)F)Cc1cc(Cl)ccc1O2 [Example B-13, N-[11-chloro-2-methyl-3-oxo-8-(3,3,3-trifluoropropyl)-2,3,6,7,8,9-hexahydrodibenzo[f,i]pyrido[3,4-k][1,8,4]dioxazacyclododecin-17-yl]ethanesulfonamide] | 2.22 | 16.8
Cn1cc2c(cc1=O)OCCCCc1cc(Cl)ccc1Oc1ncc(CS(C)(=O)=O)cc1-2 [Example A-40, 11-chloro-2-methyl-17-((methylsulfonyl)methyl)-6,7,8,9-tetrahydrobenzo[11,12][1,6]dioxacyclododecino[2,3-b:4,5-c′]dipyridin-3(2H)-one] | 6.09 | 23.7
CCS(=O)(=O)Nc1ccc2c(c1)-c1cn(C)c(=O)cc1OCCCCCc1cc(Cl)ccc1O2 [Example A-19, N-(12-chloro-2-methyl-3-oxo-3,6,7,8,9,10-hexahydro-2H-dibenzo[4,5:7,8][1,6]dioxacyclotridecino[3,2-c]pyridin-18-yl)ethanesulfonamide] | 2.45 | 16.2
Cn1cc2c(cc1=O)OCCCCc1cc(OC(F)(F)F)ccc1Oc1ccc(NS(C)(=O)=O)cc1-2 [Example A-30, N-[2-methyl-3-oxo-11-(trifluoromethoxy)-2,3,6,7,8,9-hexahydrodibenzo[4,5:7,8][1,6]dioxacyclododecino[3,2-c]pyridin-17-yl]methanesulfonamide] | 1.15 | 8.77
CCS(=O)(=O)c1ccc2c(c1)-c1cn(C)c(=O)cc1OCCCc1ccccc1O2 [Example A-1, 16-(ethylsulfonyl)-2-methyl-7,8-dihydro-2H-dibenzo[4,5:7,8][1,6]dioxacycloundecino[3,2-c]pyridin-3(6H)-one] | 4.58 | 6.89
CCS(=O)(=O)Nc1ccc2c(c1)-c1cn(C)c(=O)cc1OCCNC(=O)c1cc(Cl)ccc1O2 [Example B-4, N-(11-chloro-2-methyl-3,9-dioxo-2,3,6,7,8,9-hexahydrodibenzo[f,i]pyrido[3,4-k][1,8,4]dioxazacyclododecin-17-yl)ethanesulfonamide] | 10.5 | 257
CCS(=O)(=O)Nc1ccc2c(c1)-c1cn(C)c(=O)cc1OCCCCc1cc(C#N)ccc1O2 [Example A-45, N-(11-cyano-2-methyl-3-oxo-2,3,6,7,8,9-hexahydrodibenzo[4,5:7,8][1,6]dioxacyclododecino[3,2-c]pyridin-17-yl)ethanesulfonamide] | 1.84 | 3.82
CCS(=O)(=O)c1ccc2c(c1)-c1nn(C)c(=O)cc1OCCCCc1cc(Cl)ccc1O2 [Example A-53, 11-chloro-17-(ethylsulfonyl)-2-methyl-6,7,8,9-tetrahydrodibenzo[4,5:7,8][1,6]dioxacyclododecino[3,2-c]pyridazin-3(2H)-one] | 6.32 | 47.5
CCS(=O)(=O)c1cnc2c(c1)-c1cn(C)c(=O)cc1OCCCCc1cc(Cl)ccc1O2 [Example A-34, 11-chloro-17-(ethylsulfonyl)-2-methyl-6,7,8,9-tetrahydrobenzo[11,12][1,6]dioxacyclododecino[2,3-b:4,5-c′]dipyridin-3(2H)-one] | 6.92 | 33.3
CCS(=O)(=O)Nc1ccc2c(c1)-c1cn(C)c(=O)cc1OCCCCc1cc(F)c(F)cc1O2 [Example A-48, N-(11,12-difluoro-2-methyl-3-oxo-2,3,6,7,8,9-hexahydrodibenzo[4,5:7,8][1,6]dioxacyclododecino[3,2-c]pyridin-17-yl)ethanesulfonamide] | 1.32 | 4.31
CCS(=O)(=O)Nc1ccc2c(c1)-c1nn(C)c(=O)cc1OCCCCc1cc(C#N)ccc1O2 [Example A-56, N-(11-cyano-2-methyl-3-oxo-2,3,6,7,8,9-hexahydrodibenzo[4,5:7,8][1,6]dioxacyclododecino[3,2-c]pyridazin-17-yl)ethanesulfonamide] | 3.99 | 16.9
CCS(=O)(=O)Nc1ccc2c(c1)-c1cn(C)c(=O)cc1OCCCCc1ccncc1O2 [Example A-26, N-(2-methyl-3-oxo-2,3,6,7,8,9-hexahydrobenzo[4,5][1,6]dioxacyclododecino[3,2-c:7,8-c′]dipyridin-17-yl)ethanesulfonamide] | 2.01 | 14.9
CCS(=O)(=O)c1ccc2c(c1)-c1cn(C)c(=O)cc1OCCCCc1ccncc1O2 [Example A-42, 17-(ethylsulfonyl)-2-methyl-6,7,8,9-tetrahydrobenzo[4,5][1,6]dioxacyclododecino[3,2-c:7,8-c′]dipyridin-3(2H)-one] | 0.86 | 10.2
Cn1cc2c(cc1=O)OCCCCc1ccncc1Oc1ccc(N)cc1-2 [Example A-28, 17-amino-2-methyl-6,7,8,9-tetrahydrobenzo[4,5][1,6]dioxacyclododecino[3,2-c:7,8-c′]dipyridin-3(2H)-one] | 85.9 | > 1000
CCS(=O)(=O)Nc1ccc2c(c1)-c1cn(C)c(=O)cc1OCCCCc1cc(Cl)cnc1O2 [Example A-41, N-(3-chloro-12-methyl-11-oxo-5,6,7,8,11,12-hexahydrobenzo[4,5][1,6]dioxacyclododecino[7,8-b:3,2-c′]dipyridin-15-yl)ethanesulfonamide] | 8.05 | 26.8
CCS(=O)(=O)Nc1ccc2c(c1)-c1cn(C)c(=O)cc1OCCN(S(C)(=O)=O)Cc1cc(Cl)ccc1O2 [Example B-6, N-[11-chloro-2-methyl-8-(methylsulfonyl)-3-oxo-2,3,6,7,8,9-hexahydrodibenzo[f,i]pyrido[3,4-k][1,8,4]dioxazacyclododecin-17-yl]ethanesulfonamide] | 1.57 | 17.1
Cn1cc2c(cc1=O)OCCCCc1cc(F)cc(F)c1Oc1ncc(CS(C)(=O)=O)cc1-2 [Example A-43, 11,13-difluoro-2-methyl-17-((methylsulfonyl)methyl)-6,7,8,9-tetrahydrobenzo[11,12][1,6]dioxacyclododecino[2,3-b:4,5-c′]dipyridin-3(2H)-one] | 3.82 | 10.7
CCS(=O)(=O)Nc1ccc2c(c1)-c1cn(C)c(=O)cc1OCCC/C=C/c1cc(Cl)ccc1O2 [Example A-16, (E)-N-(12-chloro-2-methyl-3-oxo-3,6,7,8-tetrahydro-2H-dibenzo[4,5:7,8][1,6]dioxacyclotridecino[3,2-c]pyridin-18-yl)ethanesulfonamide] | 1.66 | 15.2
Cn1cc2c(cc1=O)OCCCCc1cc(F)cc(F)c1Oc1ccc(S(=O)(=O)C3CC3)cc1-2 [Example A-21, 17-(cyclopropylsulfonyl)-11,13-difluoro-2-methyl-6,7,8,9-tetrahydrodibenzo[4,5:7,8][1,6]dioxacyclododecino[3,2-c]pyridin-3(2H)-one] | 0.88 | 5.71
Cn1cc2c(cc1=O)OCCCCc1cc(Cl)ccc1Oc1ccc(N)cc1-2 [Example A-8, 17-amino-11-chloro-2-methyl-6,7,8,9-tetrahydrodibenzo[4,5:7,8][1,6]dioxacyclododecino[3,2-c]pyridin-3(2H)-one] | 25.2 | 
Cn1cc2c(cc1=O)OCCCCc1cc(Cl)ccc1Oc1ncc(N)cc1-2 [Example A-32, 17-amino-11-chloro-2-methyl-6,7,8,9-tetrahydrobenzo[11,12][1,6]dioxacyclododecino[2,3-b:4,5-c′]dipyridin-3(2H)-one] | 88.7 | 
